In the supplement of paper PMC10307832:

How the values were obtained:
Assay in all cases: relative viability (nuclei count vs DMSO), 5 days (fraction); higher = more cells survive
BEN = system: BEN
How it was run: (§1)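 Nuclei were stained with Hoechst during a one-step fixation (final 0.05% Triton X-100, 1% formaldehyde, 1 ug/ml Hoechst) carried out 5 days after dosing, then counted on 4× images. The cells, lung cancer lines in 1536-well plates, had been dosed by pin tool the day after seeding with one drug alone or a fixed anchor-drug dose plus five library-drug doses (not always all listed) in √10 steps. Relative viability is the nuclei count in treated wells divided by that in vehicle wells, and each value is the median of duplicate plates.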

EKVX = system: EKVX
How it was run: as §1

HCC-827 = system: HCC-827
How it was run: as §1

HOP-62 = system: HOP-62
How it was run: as §1

LCLC-103H = system: LCLC-103H
How it was run: as §1

LK-2 = system: LK-2
How it was run: as §1

LOU-NH91 = system: LOU-NH91
How it was run: as §1

LXF-289 = system: LXF-289
How it was run: as §1

NCI-H1355 = system: NCI-H1355
How it was run: as §1

NCI-H1437 = system: NCI-H1437
How it was run: as §1

NCI-H1666 = system: NCI-H1666
How it was run: as §1

NCI-H1944 = system: NCI-H1944
How it was run: as §1

NCI-H1993 = system: NCI-H1993
How it was run: as §1

NCI-H2126 = system: NCI-H2126
How it was run: as §1

NCI-H441 = system: NCI-H441
How it was run: as §1

NCI-H647 = system: NCI-H647
How it was run: as §1

NCI-H661 = system: NCI-H661
How it was run: as §1

NCI-H727 = system: NCI-H727
How it was run: as §1

PC-14 = system: PC-14
How it was run: as §1

RERF-LC-KJ = system: RERF-LC-KJ
How it was run: as §1

SK-MES-1 = system: SK-MES-1
How it was run: as §1

Compound: Cc1cn(-c2cc(NC(=O)c3ccc(C)c(Nc4nccc(-c5cccnc5)n4)c3)cc(C(F)(F)F)c2)cn1 [Nilotinib] + C[C@]1(O)C[C@@H](c2nc(-c3ccc4ccc(-c5ccccc5)nc4c3)c3c(N)nccn32)C1 [Linsitinib] (partner 1 µM)
- relative viability (BEN; first compound 0.001 µM): 0.95
- relative viability (BEN; first compound 0.003162 µM): 0.997
- relative viability (BEN; first compound 0.01 µM): 1.26
- relative viability (BEN; first compound 0.1 µM): 1.05
- relative viability (EKVX; first compound 0.001 µM): 0.866
- relative viability (EKVX; first compound 0.003162 µM): 1.26
- relative viability (EKVX; first compound 0.01 µM): 1.62
- relative viability (EKVX; first compound 0.03162 µM): 0.955
- relative viability (EKVX; first compound 0.1 µM): 1.09
- relative viability (HCC-827; first compound 0.001 µM): 0.944
- relative viability (HCC-827; first compound 0.003162 µM): 1.08
- relative viability (HCC-827; first compound 0.01 µM): 1.08
- relative viability (HCC-827; first compound 0.1 µM): 0.941
- relative viability (HOP-62; first compound 0.001 µM): 0.694
- relative viability (HOP-62; first compound 0.003162 µM): 0.853
- relative viability (HOP-62; first compound 0.01 µM): 0.863
- relative viability (HOP-62; first compound 0.03162 µM): 0.715
- relative viability (HOP-62; first compound 0.1 µM): 0.744
- relative viability (LCLC-103H; first compound 0.001 µM): 1.19
- relative viability (LCLC-103H; first compound 0.003162 µM): 1.17
- relative viability (LCLC-103H; first compound 0.03162 µM): 0.783
- relative viability (LCLC-103H; first compound 0.1 µM): 1.17
- relative viability (LK-2; first compound 0.001 µM): 0.517
- relative viability (LK-2; first compound 0.003162 µM): 0.515
- relative viability (LK-2; first compound 0.01 µM): 0.442
- relative viability (LK-2; first compound 0.03162 µM): 0.405
- relative viability (LK-2; first compound 0.1 µM): 0.487
- relative viability (LOU-NH91; first compound 0.001 µM): 0.929
- relative viability (LOU-NH91; first compound 0.003162 µM): 1.01
- relative viability (LOU-NH91; first compound 0.01 µM): 0.976
- relative viability (LOU-NH91; first compound 0.03162 µM): 0.926
- relative viability (LOU-NH91; first compound 0.1 µM): 0.917
- relative viability (LXF-289; first compound 0.001 µM): 0.979
- relative viability (LXF-289; first compound 0.003162 µM): 1.15
- relative viability (LXF-289; first compound 0.01 µM): 1.09
- relative viability (LXF-289; first compound 0.03162 µM): 0.949
- relative viability (LXF-289; first compound 0.1 µM): 0.92
- relative viability (NCI-H1355; first compound 0.001 µM): 0.815
- relative viability (NCI-H1355; first compound 0.003162 µM): 1.11
- relative viability (NCI-H1355; first compound 0.01 µM): 1.16
- relative viability (NCI-H1355; first compound 0.03162 µM): 0.836
- relative viability (NCI-H1355; first compound 0.1 µM): 0.934
- relative viability (NCI-H1437; first compound 0.001 µM): 0.879
- relative viability (NCI-H1437; first compound 0.003162 µM): 1.19
- relative viability (NCI-H1437; first compound 0.01 µM): 1.24
- relative viability (NCI-H1437; first compound 0.03162 µM): 0.747
- relative viability (NCI-H1437; first compound 0.1 µM): 0.755
- relative viability (NCI-H1666; first compound 0.001 µM): 0.854
- relative viability (NCI-H1666; first compound 0.003162 µM): 0.954
- relative viability (NCI-H1666; first compound 0.01 µM): 0.74
- relative viability (NCI-H1666; first compound 0.03162 µM): 0.911
- relative viability (NCI-H1666; first compound 0.1 µM): 0.945
- relative viability (NCI-H1944; first compound 0.001 µM): 1.08
- relative viability (NCI-H1944; first compound 0.003162 µM): 1.41
- relative viability (NCI-H1944; first compound 0.01 µM): 1.5
- relative viability (NCI-H1944; first compound 0.03162 µM): 1.33
- relative viability (NCI-H1944; first compound 0.1 µM): 1.36
- relative viability (NCI-H1993; first compound 0.001 µM): 0.808
- relative viability (NCI-H1993; first compound 0.003162 µM): 0.74
- relative viability (NCI-H1993; first compound 0.01 µM): 0.702
- relative viability (NCI-H1993; first compound 0.03162 µM): 0.804
- relative viability (NCI-H1993; first compound 0.1 µM): 0.769
- relative viability (NCI-H2126; first compound 0.001 µM): 0.684
- relative viability (NCI-H2126; first compound 0.003162 µM): 0.806
- relative viability (NCI-H2126; first compound 0.01 µM): 0.827
- relative viability (NCI-H2126; first compound 0.03162 µM): 0.779
- relative viability (NCI-H2126; first compound 0.1 µM): 0.666
- relative viability (NCI-H441; first compound 0.001 µM): 0.503
- relative viability (NCI-H441; first compound 0.003162 µM): 0.588
- relative viability (NCI-H441; first compound 0.01 µM): 0.482
- relative viability (NCI-H441; first compound 0.1 µM): 0.512
- relative viability (NCI-H647; first compound 0.001 µM): 1.13
- relative viability (NCI-H647; first compound 0.003162 µM): 1.43
- relative viability (NCI-H647; first compound 0.03162 µM): 1.07
- relative viability (NCI-H647; first compound 0.1 µM): 1.02
- relative viability (NCI-H661; first compound 0.001 µM): 0.508
- relative viability (NCI-H661; first compound 0.003162 µM): 0.472
- relative viability (NCI-H661; first compound 0.01 µM): 0.612
- relative viability (NCI-H661; first compound 0.03162 µM): 0.501
- relative viability (NCI-H661; first compound 0.1 µM): 0.586
- relative viability (NCI-H727; first compound 0.001 µM): 0.225
- relative viability (NCI-H727; first compound 0.01 µM): 0.368
- relative viability (NCI-H727; first compound 0.03162 µM): 0.275
- relative viability (NCI-H727; first compound 0.1 µM): 0.263
- relative viability (PC-14; first compound 0.001 µM): 0.883
- relative viability (PC-14; first compound 0.003162 µM): 1.05
- relative viability (PC-14; first compound 0.01 µM): 1.07
- relative viability (PC-14; first compound 0.03162 µM): 0.898
- relative viability (PC-14; first compound 0.1 µM): 1.01
- relative viability (RERF-LC-KJ; first compound 0.001 µM): 0.882
- relative viability (RERF-LC-KJ; first compound 0.003162 µM): 0.941
- relative viability (RERF-LC-KJ; first compound 0.01 µM): 1.05
- relative viability (RERF-LC-KJ; first compound 0.03162 µM): 0.853
- relative viability (RERF-LC-KJ; first compound 0.1 µM): 0.917
- relative viability (SK-MES-1; first compound 0.003162 µM): 1.29
- relative viability (SK-MES-1; first compound 0.01 µM): 1.16
- relative viability (SK-MES-1; first compound 0.03162 µM): 1.12
